Assay results published in publication PMC11241267, “Prokaryotic Expression and Functional Verification of Antimicrobial Peptide LRGG” (International Journal of Molecular Sciences, 2024).
Where no end group is shown, it is not given here.

How the values were obtained:
[1] = tested on: AB-strain zebrafish embryos; assay: Embryotoxicity in zebrafish; type: in vivo; conditions: embryos at 28 °C for approximately 2–3 days, light microscope; for zebrafish morphology (embryotoxicity): 1 × MIC
Description: A sodium dehydroacetate solution of 200 μg/mL served as the positive control, while the negative control group contained only culture medium. The embryos were cultured in a constant temperature incubator at 28 °C for approximately 2–3 days, and their morphology after fertilization was observed using a light microscope.

[2] = tested on: Eschericha coli ATCC25922; assay: Serum stability (MIC at different serum concentrations); type: cell-based; conditions: triplicate; for MIC value in 5% serum: fetal bovine serum 5%; for MIC value in 10% serum: fetal bovine serum 10%; for MIC value in 20% serum: fetal bovine serum 20%; for MIC value in 40% serum: fetal bovine serum 40%; for MIC value in 50% serum: fetal bovine serum 50%; for MIC value, Control: untreated peptide, Table 5 control
Description: (§1) The strains kept at −80 °C were reactivated, plated, and incubated overnight at 37 °C. Single colonies were picked, inoculated into 5 mL of MH medium, and cultured until they reached OD600 = 0.5. The bacterial suspensions were then diluted to 1 × 10^5 CFU/mL, and 50 μL was added to wells 1–11. Then, 50 μL and 100 μL of deionized water were added to wells […], respectively, to provide a positive and a negative control. The concentration of peptide present in the first non-turbid well in which bacterial growth was inhibited was taken as the minimal inhibitory concentration (MIC). This experiment was repeated three times.
(§2) The efficacy of the chemically synthesized and in vivo-expressed LRGG peptide were tested for their efficacy against Eschericha coli ATCC 25922 under various conditions, such as heat and different pH conditions, before determining their MIC in triplicate. In one case, the peptides were placed in ice-cold water at 0 °C and heated to 37 °C and 100 °C for 30 min each, and their efficacy was compared to that of an untreated control group. This process was repeated three times. In another case, the peptides were exposed for one hour to pH values of 4, 6, 8, and 10, and their activity was compared to that of an untreated control group. In another set of experiments, the peptides were mixed and incubated with 1 mg/mL of four different proteases. After inactivation of the enzymes, the peptides were tested for their efficacy against Eschericha coli ATCC 25922. The peptides were also tested after mixing with various salt solutions and concentrations of fetal bovine serum at concentrations ranging from 5% to 50%. In all cases, the MIC were determined in triplicate using untreated antimicrobial peptides as controls.

[3] = tested on: Eschericha coli ATCC25922; assay: Plasma membrane potential (diSC3-5); type: cell-based; conditions: 1–8 MIC, 0–1500 s, diSC3-5 0.4 μM
Description: To determine whether the expressed antimicrobial peptide LRGG can break bacterial cytoplasmic membranes, diSC3-5 was used as a fluorescent dye to monitor changes in membrane potential. A bacterial suspension was prepared and adjusted to an ABS O.D. of 600 = 0.5. Next, the same volume of bacterial suspension and varying concentrations of expressed antimicrobial peptide LRGG (1–8 MIC) were added to black 96-well plates. A control group was established using PBS, and diSC3-5 dye was added to a final concentration of 0.4 μM and incubated at room temperature in the dark for one hour. Changes in […] between 0 and 1500 s were measured using a fluorescence microplate reader at excitation (622 nm) and emission (670 nm) wavelengths.

[4] = tested on: Eschericha coli ATCC25922; assay: Protease stability (MIC after protease treatment); type: cell-based; design: MIC value, Control: unit not given beside the values; conditions: triplicate; for MIC value after Papain: peptide incubated with 1 mg/mL papain; for MIC value after Papain / MIC value after Pepsin / MIC value after Protease K / MIC value after Trypsin: enzyme inactivated before MIC; for MIC value after Pepsin: peptide incubated with 1 mg/mL pepsin; for MIC value after Protease K: peptide incubated with 1 mg/mL protease K; for MIC value after Trypsin: peptide incubated with 1 mg/mL trypsin; for MIC value, Control: untreated peptide, Table 3 control
Description: as §1, §2

[5] = tested on: Eschericha coli ATCC25922; assay: Salt ion stability (MIC in salt solutions); type: cell-based; design: unit not given here; conditions: triplicate; for MIC value with MgCl2: 1 mM MgCl2; for MIC value with CaCl2: 2.5 mM CaCl2; for MIC value with KCl: 4.5 mM KCl; for MIC value with NH4Cl: 6 mM NH4Cl; for MIC value with NaCl: 150 mM NaCl; for MIC value, Control: untreated peptide, Table 4 control
Description: as §1, §2

sheep red blood cells = type: cell-based; conditions: red cells of sheep
Description: To obtain a suspension containing 2% red blood cells, 15 mL of sheep blood was collected in a tube containing 0.2% sodium heparin anticoagulant and centrifuged at 1000 rpm for 10 min. After discarding the supernatant, the red blood cell pellet was collected, washed twice with sterile phosphate buffered saline (PBS), and resuspended in PBS. […] After the erythrocyte suspension was incubated with the antimicrobial peptide LRGG for one hour at 37 °C, the mixture from each well of the 96-well plate was aspirated and centrifuged at 1000× g for 10 min. The absorbance of the supernatant was then measured at 570 nm, with three repeats and averaging. Finally, the hemolytic index was calculated as follows: Hemolytic index (%) = (O.D. peptide − O.D. PBS)/(O.D. TritonX − 100 − O.D. PBS) × 100%.

[6] = tested on: Eschericha coli ATCC25922; assay: Temperature and pH stability (MIC after treatment); type: cell-based; design: MIC value, Control (pH 7) / MIC value after 0 °C / MIC value after 37 °C / MIC value after 100 °C / MIC value after pH 4 / MIC value after pH 6 / MIC value after pH 8 / MIC value after pH 10: unit not given beside the values; conditions: for MIC value after pH 4: peptide exposed for one hour to pH 4; for MIC value after pH 4 / MIC value after pH 6 / MIC value after pH 8 / MIC value after pH 10 / MIC value after 37 °C / MIC value after 100 °C / MIC value after 0 °C / MIC value, Control (pH 7): triplicate; for MIC value after pH 6: peptide exposed for one hour to pH 6; for MIC value after pH 8: peptide exposed for one hour to pH 8; for MIC value after pH 10: peptide exposed for one hour to pH 10; for MIC value after 37 °C: peptide heated to 37 °C for 30 min before MIC; for MIC value after 100 °C: peptide heated to 100 °C for 30 min before MIC; for MIC value after 0 °C: peptide in ice-cold water at 0 °C for 30 min before MIC; for MIC value, Control (pH 7): untreated peptide, Table 2 control; for increase of MIC value at 100 °C: versus untreated control
Description: as §1
as §2, with “In another case, the peptides were exposed for one hour to pH values of 4, 6, 8, and 10, and their activity was compared to that of an untreated control group.” left out

| Compound | MIC value in 5% serum [2] | MIC value in 10% serum [2] | MIC value in 20% serum [2] | MIC value in 40% serum [2] | MIC value in 50% serum [2] | MIC value, Control [2] | zebrafish morphology (embryotoxicity) [1] | MIC value after Papain [4] | MIC value after Pepsin [4] | MIC value after Protease K [4] | MIC value after Trypsin [4] | MIC value, Control [4] | MIC value with MgCl2 [5] | MIC value with CaCl2 [5] | MIC value with KCl [5] | MIC value with NH4Cl [5] | MIC value with NaCl [5] | MIC value, Control [5] | MIC value after pH 4 [6] | MIC value after pH 6 [6] | other results |
| --- | --- | --- | --- | --- | --- | --- | --- | --- | --- | --- | --- | --- | --- | --- | --- | --- | --- | --- | --- | --- | --- |
| CC(=O)c1c([O-])cc(C)oc1=O.[Na+] [sodium dehydroacetate, reference compound] |  |  |  |  |  |  |  |  |  |  |  |  |  |  |  |  |  |  |  |  | zebrafish morphology (embryotoxicity), positive control ([1]; 200 μg/mL): significant hemorrhage and severe bending of the fish |
| GLLRLLRRGGRRLLRLL [Expressed LRGG] | 2 | 4 | 32 | 32 | 32 | 2 | did not change the morphology of the zebrafish | >64 | >128 | >64 | >128 | 4 | 8 | 4 | 8 | 4 | 8 | 4 | 2 | 4 | diSC3-5 fluorescence value (cytoplasmic membrane potential) [3]: gradually increased; hemolytic index (sheep red blood cells): less than 10%; MIC value after pH 8 [6]: 2; MIC value after pH 10 [6]: 16; MIC value after 37 °C [6]: 4; MIC value after 100 °C [6]: 8; MIC value after 0 °C [6]: 2; MIC value, Control (pH 7) [6]: 2; increase of MIC value at 100 °C [6]: four-fold |
| H-LLRLLRRGGRRLLRLL-NH2 [Chem. Syn. LRGG] | 2 | 2 | 8 | 16 | 16 | 2 | did not change the morphology of the zebrafish | >64 | >128 | >64 | >128 | 2 | 4 | 4 | 2 | 2 | 8 | 2 | 2 | 2 | MIC value after pH 8 [6]: 4; MIC value after pH 10 [6]: 4; MIC value after 37 °C [6]: 2; MIC value after 100 °C [6]: 8; MIC value after 0 °C [6]: 2; MIC value, Control (pH 7) [6]: 2; increase of MIC value at 100 °C [6]: four-fold |
